# Data from US20220315908A1, “NOVEL GARDNERELLA ENDOLYSINS AND USES THEREOF” (priority 2019, published 2022).
# Tested on: G. leopoldii (Gv_11)
# Experiment: MIC and MBC microbroth dilution
# Type: cell-based, Gardnerella leopoldii
# Conditions: for MIC / MBC: Gardnerella leopoldii; for MIC: 48 h
# Protocol: One of the main deficiencies in the treatment of BV is the high rate of recurrence in many women, which leads to repeated administration of antibiotics and concomitant destabilization of the microbiome and other side effects. The minimal inhibitory concentration (MIC) and minimal bactericidal concentration (MBC) on Gardnerella cells of the strains also used for the endolysin activity assays were then measured using the method described in Reference Example 6 and 7. […] Essentially, Gardnerella suspensions at 2.5×10^7 CFU/ml were incubated with the concentration of antibiotics as indicated and incubated for 48 h at 37° C. under anaerobic conditions. […] OD(610) was measured at the beginning and the end of the experiment. At the end of the experiment, 2 ul of each reaction mix was spotted on agar to determine the MBC.
# The conditions under which MIC and MBC were measured are more rigorous than the standard.
# Example 7—Activity assays of a representative (H2B10) of domain swapped endolysins on the growth in suspension of different Gardnerella strains. […] The conditions under which MBC was measured are more rigorous than the standard. […] In general, it is known, that antibiotics only insufficiently eradicate the Gardnerella biofilm, a hallmark of BV, which is one suspected reason for the reported very high recurrence rate of BV. Despite leaving residual viable biofilm, antibiotics wipe parts of the beneficial organisms of the vaginal microbiome which then opens an ecological niche for other pathogens, e.g. fungi.
# Bacteria were plated from cryo stock on BD Choc Agar plates (Gardnerella) and incubated at 37° C. for 48 h under anaerobic conditions. Colonies were scraped from the plate, resuspended in Hardy Broth or NYC-III-HS-pH 5.0, and the suspension adjusted to OD (610 or 620 nm as indicated) 0.05. It has to be noted that two Tecan Microplate readers, having respectively a 610 nm or 620 nm filter, have been used interchangeably in the experiments. Although it doesn't make any difference for the experiments, the exact wavelength used is specified in each example. Antibiotics were prepared as 20× stocks for each of the required final concentrations. 95 μl of cell suspension was mixed with 5 μl antibiotics dilution in a 384-well plate. OD (610-620 as indicated) at the start of the reaction was measured, then the plate was incubated at 37° C. for 48 h under anaerobic conditions. After that, the OD (610-620 as indicated) was measured again for MIC determination, where MIC was defined as the lowest concentration of antibiotic where the OD (610-620 as indicated) was not above the level measured at the beginning of the experiment. After measuring OD, 2 μl of each well were spotted on a NYC-III+HS Agar plate. The plates were then incubated for further 48 h at 37° C. under anaerobic conditions. After incubation, cell growth on each spot was evaluated, and the MBC defined as the lowest concentration of antibiotics where no bacteria grew on the plate. The experiments were conducted in triplicate for each condition. In the second round of MIC and MBC experiments with antibiotics the Gardnerella cell suspension was adjusted to the McFarland standard 0.5 (approximately OD (610) 0.07) and then diluted 1:75 according to the CLSI (Clinical and Laboratory Standards Institute) standards. Antibiotics were prepared according to the CLSI standards and 50 μl of cell suspension was mixed in a 96-well plate with 50 μl antibiotics. Otherwise the MIC and MBC was determined as described above.
smiles,measurement,setting,value
Cc1ncc([N+](=O)[O-])n1CCO [Metronidazole],MIC,"first round: […]10^7 CFU/ml, Hardy broth, 384-well, 48 h 37° C. anaerobic",> 128 µg/mL
same,MIC,"second round: 1×10^5-1×10^6 CFU/ml (CLSI), NYC-III broth, 96-well, 48 h anaerobic",128 µg/mL
same,MBC,"second round: 1×10^5-1×10^6 CFU/ml (CLSI), NYC-III broth, 96-well",> 128 µg/mL
same,MBC,"first round: 2.5×10^7 CFU/ml, minimal concentration fully eradicating the suspension",> 128 µg/mL
same,"resistance class of MIC, Metronidazole",first round,R (>=32 μg/mi for Metronidazole)
same,"resistance class given with MBC, Metronidazole",second round,R (>=32 μg/mi for Metronidazole)
same,"resistance class printed with MIC, Metronidazole",second round,R (>=32 μg/mi for Metronidazole)
